The source of these data is DBAASP.

SMILES strings stand for the structures. ≈ marks a conversion by molar mass, not a printed value.

Test in all cases: ≥ marks a high value that may be exact or a test limit, other limits are often not marked, values filed in µg/mL are converted to µM
Test [1] concerns Escherichia coli SBS 363.
For test [2], the system named is Micrococcus luteus.
For test [3], the system named is Salmonella typhimurium.
Test [4] concerns Staphylococcus epidermidis.
The test system of test [5] is Escherichia coli.
Test [6] deals with Proteus mirabilis.
Test [7] relates to Bacillus subtilis.
Test [8] relates to Staphylococcus aureus.
In test [9] the test system is Shigella dysenteriae.
Test [10] deals with Klebsiella pneumoniae.
The test system of test [11] is Pseudomonas aeruginosa.
Test [12] has as its system Enterococcus faecalis NCTC 12697.
In test [13] the test system is Escherichia coli ATCC 25922.
The test system of test [14] is Staphylococcus aureus ATCC 6538P.
Test [15] deals with Bacillus subtilis ATCC 6633.
The subject of test [16] is Staphylococcus epidermidis ATCC 12228.
Test [17] concerns Klebsiella pneumoniae ATCC 10031.
For test [18], the system named is Salmonella enterica subsp. enterica serovar Typhimurium ATCC 14028.
Test [19] deals with Pseudomonas aeruginosa ATCC 27853.
Test [20] concerns Shigella dysenteriae ATCC 9752.
Test [21] concerns Staphylococcus aureus ATCC 29213.

A word on the MIC: it is the least concentration at which growth counts as inhibited. On to `CC[C@H](C)[C@@H]1NC(=O)[C@H](CO)NC(=O)[C@H](CCCCN)NC(=O)[C@@H]2CSSC[C@@H](C(=O)N[C@@H](CC(=O)O)C(=O)NCC(=O)N[C@@H](CCC(N)=O)C(=O)N[C@H](C(=O)N[C@H](C(=O)N[C@H](C(=O)N[C@@H](CC(N)=O)C(=O)N[C@@H](CO)C(=O)N[C@H]3CSSC[C@@H]4NC(=O)[C@H](CCCN=C(N)N)NC(=O)CNC(=O)[C@H](Cc5ccccc5)NC(=O)[C@H](CCCCN)NC(=O)[C@H](CCCN=C(N)N)NC(=O)[C@H](CCCCN)NC(=O)[C@H](CSSC[C@@H](C(=O)N[C@@H](Cc5ccccc5)C(=O)N[C@@H](Cc5ccccc5)C(=O)O)NC(=O)[C@H](CCC(=O)O)NC(=O)[C@H]([C@@H](C)O)NC(=O)[C@H]([C@@H](C)CC)NC(=O)[C@H](Cc5ccccc5)NC(=O)CNC(=O)[C@H](CC(=O)O)NC(=O)[C@H](CO)NC4=O)NC(=O)[C@H](CC(=O)O)NC(=O)[C@H](CCC(=O)O)NC3=O)[C@@H](C)CC)[C@@H](C)O)[C@@H](C)O)NC(=O)[C@H](CO)NC(=O)[C@H](C(C)C)NC(=O)CNC(=O)[C@H](CCCCN)NC(=O)[C@H](CCCN=C(N)N)NC(=O)[C@H](CC(N)=O)NC(=O)[C@H](CC(C)C)NC(=O)[C@H](Cc3ccc(O)cc3)NC(=O)CNC(=O)[C@H](Cc3ccc(O)cc3)NC(=O)CNC(=O)[C@H](CSSC[C@H](NC(=O)[C@@H](NC(=O)[C@@H]3CCCN3C(=O)[C@H](C)NC(=O)[C@H](Cc3ccc(O)cc3)NC(=O)[C@H](C)NC(=O)[C@H](Cc3ccccc3)NC(=O)[C@@H](NC(=O)[C@@H](N)CCSC)C(C)C)[C@@H](C)O)C(=O)N[C@@H](C)C(=O)N[C@@H](CCCN=C(N)N)C(=O)N2)NC(=O)[C@H](Cc2ccc(O)cc2)NC(=O)[C@H](CCCN=C(N)N)NC(=O)[C@H](C)NC(=O)CNC1=O` [MVFAYAPTCARCKSIGARYCGYGYLNRKGVSCDGQTTINSCEDCKRKFGRCSDGFITECFF], for which the figures for the MIC in [1] and in test [2] were at least 35.4 µM and at least 100 µM, respectively.

With `CC(C)C[C@H](NC(=O)[C@H](Cc1c[nH]c2ccccc12)NC(=O)CNC(=O)[C@H](CC(C)C)NC(=O)[C@@H](N)Cc1ccccc1)C(=O)N[C@@H](Cc1ccccc1)C(=O)N[C@@H](CCCCN)C(=O)N[C@H](C(=O)N[C@@H](C)C(=O)N[C@@H](CO)C(=O)N[C@@H](CCCCN)C(=O)O)C(C)C` [FLGWLFKVASK], the MIC is at least 38.6 µM in [3]; 9.65 µM (≈ 12.5 µg/mL) in [4]; 19.3 µM (≈ 25 µg/mL) in test [5]; at least 154 µM in test [6]; 4.86 µM (≈ 6.3 µg/mL) in test [7]; 2.39 µM (≈ 3.1 µg/mL) in test [8]. The minimum inhibitory concentration (MIC) is 19.3 µM (≈ 25 µg/mL) in test [2], 9.65 µM (≈ 12.5 µg/mL) in [9], 9.65 µM (≈ 12.5 µg/mL) in test [10] and 77.2 µM (≈ 100 µg/mL) in test [11].

As for `CC(C)C[C@H](NC(=O)[C@@H](NC(=O)[C@H](CCCCN)NC(=O)[C@H](CO)NC(=O)[C@H](C)NC(=O)[C@@H](NC(=O)[C@H](CCCCN)NC(=O)[C@H](Cc1ccccc1)NC(=O)[C@@H](N)CC(C)C)C(C)C)C(C)C)C(=O)N1CCC[C@H]1C(=O)N[C@@H](CO)C(=O)N[C@H](C(=O)N[C@@H](CCCCN)C(=O)O)C(C)C` [LFKVASKVLPSVK], the MIC was at least 141 µM in test [3]; at least 141 µM in [4]; above 141 µM in test [5]; at least 141 µM in test [6]; at least 141 µM in test [7]; above 141 µM in [8]. Moreover, the minimal inhibitory concentration (MIC) in test [2] is at least 141 µM; in [9], at least 141 µM; in test [10], above 141 µM; in test [11], above 141 µM.

In test [12], `CC(C)C[C@H](NC(=O)[C@H](C)NC(=O)[C@H](Cc1c[nH]c2ccccc12)NC(=O)[C@H](CCCCN)NC(=O)[C@@H]1CCCN1C(=O)[C@H](CC(C)C)NC(=O)[C@@H](N)Cc1ccccc1)C(=O)N[C@@H](CCCCN)C(=O)N[C@@H](Cc1c[nH]c2ccccc12)C(=O)N[C@@H](C)C(=O)N[C@@H](C)C(=O)N[C@@H](CCCCN)C(N)=O` [FLPKWALKWAAK] returned an MIC of at least 512 µM.

For `CC(C)C[C@H](NC(=O)[C@H](C)NC(=O)CNC(=O)[C@H](CC(C)C)NC(=O)[C@@H](N)Cc1ccccc1)C(=O)N[C@@H](Cc1ccccc1)C(=O)N[C@@H](CCCCN)C(=O)N[C@@H](CC(C)C)C(=O)N[C@@H](C)C(=O)N[C@@H](CO)C(=O)N[C@@H](CCCCN)C(=O)O` [FLGALFKLASK], the minimum inhibitory concentration (MIC) was at least 167 µM in test [3]; at least 83.7 µM in [4]; 83.7 µM (≈ 100 µg/mL) in test [5]; at least 167 µM in [6]; 20.9 µM (≈ 25 µg/mL) in test [7]; 20.9 µM (≈ 25 µg/mL) in test [8]. In addition, the MIC was 10.5 µM (≈ 12.5 µg/mL) in [2], at least 83.7 µM in [9], 167 µM (≈ 200 µg/mL) in [10] and 167 µM (≈ 200 µg/mL) in test [11].

Take `CC(C)C[C@H](NC(=O)[C@H](Cc1ccccc1)NC(=O)CNC(=O)[C@H](CC(C)C)NC(=O)[C@@H](N)Cc1ccccc1)C(=O)N[C@@H](Cc1ccccc1)C(=O)N[C@@H](CCCCN)C(=O)N[C@H](C(=O)N[C@@H](C)C(=O)N[C@@H](CO)C(=O)N[C@@H](CCCCN)C(=O)O)C(C)C` [FLGFLFKVASK]: the MIC in test [3] was at least 159 µM; in test [4], at least 39.8 µM; in test [5], 79.6 µM (≈ 100 µg/mL); in test [6], at least 159 µM; in test [7] it was 9.95 µM (≈ 12.5 µg/mL); in test [8], 9.95 µM (≈ 12.5 µg/mL). The MIC in test [2] was 9.95 µM (≈ 12.5 µg/mL); in test [9], at least 79.6 µM; in test [10] it was 79.6 µM (≈ 100 µg/mL); in test [11], above 159 µM.

Regarding `CC(C)C[C@H](NC(=O)[C@H](CC(C)C)NC(=O)[C@H](Cc1c[nH]c2ccccc12)NC(=O)[C@H](CCCCN)NC(=O)[C@H](CC(C)C)NC(=O)[C@@H](N)CC(C)C)C(=O)N[C@@H](CCCCN)C(N)=O` [LLKWLLK], the minimal inhibitory concentration (MIC) in [13] was 110 µM (≈ 99.9 µg/mL); in test [14] it was 27.4 µM (≈ 25 µg/mL); in test [15] it was 27.4 µM (≈ 25 µg/mL); in test [16], 110 µM (≈ 99.9 µg/mL); in test [17], at least 219 µM; in test [18] it was 219 µM (≈ 200 µg/mL). Further, the MIC in [19] is 110 µM (≈ 99.9 µg/mL); in [20], at least 110 µM.

Turning to `CC[C@H](C)[C@H](NC(=O)[C@H](C)NC(=O)[C@H](CCC(N)=O)NC(=O)[C@H](Cc1cnc[nH]1)NC(=O)CNC(=O)[C@H](CCSC)NC(=O)[C@@H]1CCCN1C(=O)[C@H](CCCN=C(N)N)NC(=O)CNC(=O)[C@@H]1CSSC[C@@H]2NC(=O)[C@H](CC(N)=O)NC(=O)[C@H](Cc3cnc[nH]3)NC(=O)[C@H](CCCCN)NC(=O)[C@H](CC(=O)O)NC(=O)[C@H](CC(N)=O)NC(=O)[C@H]([C@@H](C)O)NC(=O)[C@@H]3CSSC[C@H](NC(=O)[C@H](CCCCN)NC(=O)[C@H](CC(C)C)NC(=O)[C@H](CCCCN)NC(=O)[C@H](Cc4ccccc4)NC(=O)[C@H](CC(C)C)NC(=O)CNC(=O)[C@H](CCCCN)NC(=O)[C@H](CCCN=C(N)N)NC(=O)[C@H](CSSC[C@H](NC(=O)[C@@H](N)CO)C(=O)N[C@@H]([C@@H](C)CC)C(=O)N4CCC[C@H]4C(=O)N[C@@H](CCCCN)C(=O)N[C@@H](Cc4cnc[nH]4)C(=O)N[C@@H](CCC(=O)O)C(=O)N[C@@H](CCC(=O)O)C(=O)N3)NC2=O)C(=O)N[C@@H](CCC(N)=O)C(=O)N[C@H]2CSSC[C@H](NC(=O)[C@H](CCCN=C(N)N)NC(=O)[C@H](CCC(=O)O)NC(=O)[C@H]([C@@H](C)O)NC(=O)[C@@H]3CCCN3C(=O)[C@H](CCC(N)=O)NC(=O)CNC(=O)[C@H](CO)NC(=O)[C@H](CCC(=O)O)NC(=O)[C@H](CC(=O)O)NC(=O)[C@H](CC(=O)O)NC(=O)[C@H](Cc3ccccc3)NC(=O)[C@H]([C@@H](C)O)NC(=O)[C@H](CO)NC2=O)C(=O)N[C@@H](C)C(=O)N1)C(=O)N[C@@H](CCC(=O)O)C(=O)N[C@H](C(=O)NCC(=O)N[C@@H](CC(C)C)C(=O)N[C@@H](CC(N)=O)C(=O)N[C@H](C(=O)N[C@@H](Cc1ccccc1)C(=O)N[C@@H](CCCN=C(N)N)C(=O)NCC(=O)N[C@@H](CC(C)C)C(=O)N[C@@H](Cc1ccccc1)C(=O)N[C@@H](CCCCN)C(=O)NCC(=O)N[C@@H](CCCCN)C(=O)N[C@@H](CCCCN)C(=O)N[C@@H](CCCCN)C(=O)N[C@@H](CC(N)=O)C(=O)N[C@@H](CCCCN)C(=O)N[C@@H](CCCCN)C(=O)N[C@H](C(=O)N[C@@H](CCCCN)C(N)=O)[C@@H](C)O)[C@@H](C)CC)[C@@H](C)O` [SCIPKHEECTNDKHNCCRKGLFKLKCQCSTFDDESGQPTERCACGRPMGHQAIETGLNIFRGLFKGKKKNKKTK], the minimum inhibitory concentration (MIC) is above 250 µM in [21] and 22.1 µM (≈ 185 µg/mL) in test [1].
